Experimental findings from US10030027B2, “Soluble guanylate cyclase stimulators” (MERCK SHARP & DOHME CORP., priority 2015, dated 2018) are described below.

Each structure is given as a SMILES string.

Test [1] deals with sGC α1/β1 heterodimer (Homo sapiens (Human), UniProt Q02108+Q02153). As to the kind of experiment: Cell-based sGC functional assay (cyclic GMP assay for sGC activator: CASA assay). More on the design: % Activation: concentration or dose not given beside the values. The following applies: CHO-K1/sGC cells; for Emax: CHO-K1, activity expressed as percentage of compound A (standard), read-out: % Activation; for EC50: inflection point, 4P fit, read-out: IP; for % Activation: activity expressed as percentage of compound A (standard). The procedure, abridged:
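CHO-K1 cells stably expressing sGC α1/β1 were pre-incubated with or without 1 μM DETA-NO (30 min, 25 °C), then exposed to compounds for 1 hr at 37 °C with 0.5 mM IBMX. Intracellular cGMP was read by HTRF and expressed as a percentage of a reference heme-dependent activator's maximum.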

For test [2], the target named is human recombinant sGC enzyme (Homo sapiens (Human), UniProt Q02108+Q02153). The test is described as follows: Size Exclusion Chromatography (SEC) competition binding assay using [3H] Ex-77B as the radioligand. The following applies: [3H] Ex-77B radioligand, 24 hours at 37° C. The method, then: Binding Assay: The binding potencies of sGC compounds to the human recombinant sGC enzyme were determined in a Size Exclusion Chromatography (SEC) competition binding assay using [^3H] Ex-77B as the radioligand. [^3H] Ex-77B was prepared using a standardardized tritium exchange procedure. The parent (non-labeled) molecule was first iodinated then a Pd-catalyzed iodine to tritium exchange provided the labeled compound. […] Assays were conducted in 96-well plates in a total volume of 200 μL. […] Non-specific binding was defined by competition with 1 μM of Ex-77B. After the incubation period, the binding mixtures were loaded onto the gel-filtration plate (ThermoFischer Cat. No. 89808) pre-equilibrated with binding buffer and spun at 1000×g for 3 min at 4° C. on a Bench top centrifuge. The collected eluates in White Frame Clear Well Isoplates (Perkin Elmer Cat #6005040) received 100 μl of UltimaGold scintillation cocktail. The sealed plates were shaken vigorously and span, and counted after 6 hours with a Wallac Microbeta TriLux 1450 LSC & Luminescence Counter (Perkin Elmer). Data from competition experiments were analyzed to determine Ki values using one site fit Ki equation.

As to `CC(C)(Cc1coc(C2(C)C(=O)Nc3nc(-c4nn(CC5CCCCO5)c5cc(F)ccc45)nc(N)c32)n1)C(=O)O` (single isomer, unassigned) [Example 134AA, 3-{2-[4-amino-2-{6-fluoro-1-[tetrahydro-2H-pyran-2-ylmethyl]-1H-indazol-3-yl}-5-methyl-6-oxo-6,7-dihydro-5H-pyrrolo[2,3-d]pyrimidin-5-yl]-1,3-oxazol-4-yl}-2,2-dimethylpropanoic acid], in test [1], the Emax is 104% and the EC50 amounted to 807 nM. The Ki (in general, a measure of affinity in units of concentration, obtained from inhibition or displacement) in test [2] was found to be 0.32 nM.
For the compound `CC1CCC(Cn2nc(-c3nc(N)c4c(n3)NC(=O)[C@@]4(C)c3nc(CC(C)(C)C(=O)O)cs3)c3ccc(F)cc32)CC1` (single isomer, unassigned) [Example 136AA], in test [1], the Emax came out at 78.2% and the EC50 came out at 11 nM. Further, the Ki in test [2] turned out to be 0.252 nM.
Turning to `CC1CCC(Cn2nc(-c3nc(N)c4c(n3)NC(=O)[C@@]4(C)c3nc(CC(C)(C)C(=O)O)cs3)c3ccc(F)cc32)CC1` (single isomer, unassigned) [Example 136AB], in test [1], the “% Activation” value was determined as 71.4% and the EC50 was 23 nM. Further, the Ki in test [2] was found to be 0.218 nM.
As for `CC(C)(Cn1cc(C2(C)C(=O)Nc3nc(-c4nn(Cc5ccccc5F)c5cc(Cl)ccc45)nc(N)c32)nn1)C(=O)O` (single isomer, unassigned) [Example 140A, 3-(4-{4-Amino-2-[6-chloro-1-(2-fluorobenzyl)-1H-indazol-3-yl]-5-methyl-6-oxo-6,7-dihydro-5H-pyrrolo[2,3-d]pyrimidin-5-yl}-1H-1,2,3-triazol-1-yl)-2,2-dimethylpropanoic acid], the EC50 in test [1] was determined as 798 nM. The Ki in test [2] came out at 0.227 nM.
For `CC1(c2cn(C(C)(C)C(=O)O)nn2)C(=O)Nc2nc(-c3nn(Cc4ccccc4F)c4cc(Cl)ccc34)nc(N)c21` (single isomer, unassigned) [Example 141A, 2-(4-{4-Amino-2-[6-chloro-1-(2-fluorobenzyl)-1H-indazol-3-yl]-5-methyl-6-oxo-6,7-dihydro-5H-pyrrolo[2,3-d]pyrimidin-5-yl}-1H-1,2,3-triazol-1-yl)-2-methylpropanoic acid], in that order: 193 nM and 0.665 nM.
In the case of `CC(C)(Cc1csc([C@]2(C)C(=O)Nc3nc(-c4nn(CC5CCCCC5)c5ncccc45)nc(N)c32)n1)C(=O)O` (single isomer, unassigned) [Example 151A], in test [1], the Emax is 131% and the EC50 amounted to 194 nM. Moreover, the Ki in test [2] was found to be 0.124 nM.
The corresponding values for `CC(C)(Cc1csc([C@]2(C)C(=O)Nc3nc(-c4nn(CC5CCCC5)c5ncccc45)nc(N)c32)n1)C(=O)O` (single isomer, unassigned) [Example 153A] are 119%, 145 nM and 0.118 nM.
For `CC1(c2nc(C[C@@H](N)C(=O)O)co2)C(=O)Nc2nc(-c3nn(Cc4ccccc4F)c4cc(Cl)ccc34)nc(N)c21` (single isomer, unassigned) [Example 172A, 3-(2-{4-amino-2-[6-chloro-1-(2-fluorobenzyl)-1H-indazol-3-yl]-5-methyl-6-oxo-6,7-dihydro-5H-pyrrolo[2,3-d]pyrimidin-5-yl}-1,3-oxazol-4-yl)-D-alanine], in that order: 92.7%, 1030 nM and 0.098 nM.
As to `Cc1ccc(F)c(Cn2nc(-c3nc(N)c4c(n3)NC(=O)[C@@]4(C)c3nc(CC(C)(C)C(=O)O)cs3)c3ccc(Cl)cc32)c1` (single isomer, unassigned) [Example 214A], in test [1], the Emax stood at 116% and the EC50 amounted to 320 nM. Further, the inhibition constant (Ki) in test [2] was 0.267 nM.
Regarding `C[C@@]1(c2ccc(CCC(=O)O)cc2)C(=O)Nc2nc(-c3nn(Cc4ccc(F)cc4)c4ccccc34)nc(N)c21` (single isomer, unassigned) [Example 221B], in test [1], the Emax came to 92.1% and the EC50 was 150 nM. Further, the Ki in test [2] amounted to 0.163 nM.
`CC(C)(Cc1csc([C@]2(C)C(=O)Nc3nc(-c4nn(CC5CCCCO5)c5ccccc45)nc(N)c32)n1)C(=O)O` (single isomer, unassigned) [Example 229AA]: in test [1], the “% Activation” value is listed as 114.6% and the EC50 is 770 nM. Besides, the Ki in test [2] amounted to 0.496 nM.
The corresponding values for `CC(C)(Cc1csc([C@]2(C)C(=O)Nc3nc(-c4nn(CC5CCCCO5)c5ccccc45)nc(N)c32)n1)C(=O)O` (single isomer, unassigned) [Example 229AB] are 72.9%, 179 nM and 0.238 nM.
`CC(C)(Cc1coc(C2(C)C(=O)Nc3nc(-c4nn(CC5CCCCO5)c5ccccc45)nc(N)c32)n1)C(=O)O` (single isomer, unassigned) [Example 230AA, 3-{2-[4-amino-5-methyl-6-oxo-2-{1-[tetrahydro-2H-pyran-2-ylmethyl]-1H-indazol-3-yl}-6,7-dihydro-5H-pyrrolo[2,3-d]pyrimidin-5-yl]-1,3-oxazol-4-yl}-2,2-dimethyl-propanoic acid]: in test [1], the EC50 was determined as 821 nM. Besides, in test [2], the Ki is 0.185 nM.
Take `CC1CCC(Cn2nc(-c3nc(N)c4c(n3)NC(=O)C4(C)c3nc(CC(C)(C)C(=O)O)co3)c3ccccc32)CC1` (single isomer, unassigned) [Example 231AA, 3-{2-[4-amino-5-methyl-2-{1-[-4-methylcyclo-hexylmethyl]-1H-indazol-3-yl}-6-oxo-6,7-dihydro-5H-pyrrolo[2,3-d]pyrimidin-5-yl]-1,3-oxazol-4-yl}-2,2-dimethyl-propanoic acid]: in test [1], the “% Activation” value was 148.2% and the EC50 worked out at 113 nM. In test [2], the Ki was 0.092 nM.
For `CC1CCC(Cn2nc(-c3nc(N)c4c(n3)NC(=O)C4(C)c3nc(CC(C)(C)C(=O)O)co3)c3ccccc32)CC1` (single isomer, unassigned) [Example 231AB, 3-{2-[4-amino-5-methyl-2-{1-[4-methylcyclo-hexylmethyl]-1H-indazol-3-yl}-6-oxo-6,7-dihydro-5H-pyrrolo[2,3-d]pyrimidin-5-yl]-1,3-oxazol-4-yl}-2,2-dimethyl-propanoic acid], in that order: 127.9%, 529 nM and 0.087 nM.
As for `CC(C)(Cc1csc([C@]2(C)C(=O)Nc3nc(-c4nn(Cc5ccccc5F)c5ccccc45)nc(N)c32)n1)c1nn[nH]n1` (single isomer, unassigned) [Example 236A], in test [1], the Emax turned out to be 110% and the EC50 was 478 nM. Moreover, the Ki in test [2] worked out at 0.158 nM.
For `C[C@@]1(c2ccc(CCc3nn[nH]n3)cc2)C(=O)Nc2nc(-c3nn(CCC(F)(F)C(F)(F)F)c4cc(Cl)ccc34)nc(N)c21` (single isomer, unassigned) [Example 237B], in that order: 93.3%, 5870 nM and 0.193 nM.
On to `CC1(c2ccc(CCc3nn[nH]n3)cn2)C(=O)Nc2nc(-c3nn(Cc4ccccc4F)c4ccccc34)nc(N)c21` (single isomer, unassigned) [Example 246A, 5-{5-[2-(2H-tetrazol-5-yl)ethyl]pyridin-2-yl}-4-amino-2-[1-(2-fluoro-benzyl)-1H-indazol-3-yl]-5-methyl-5,7-dihydro-6H-pyrrolo[2,3-d] pyrimidin-6-one], for which, in test [1], the EC50 worked out at 7120 nM. The Ki in test [2] was 0.22 nM.
